Test results taken from US20210395239A1 (Hoffmann-La Roche Inc., priority 2018, published 2021).

Target: T1, hTLR9 (Homo sapiens, UniProt Q9NR96)
T1 sequence (Q9NR96 26-1032): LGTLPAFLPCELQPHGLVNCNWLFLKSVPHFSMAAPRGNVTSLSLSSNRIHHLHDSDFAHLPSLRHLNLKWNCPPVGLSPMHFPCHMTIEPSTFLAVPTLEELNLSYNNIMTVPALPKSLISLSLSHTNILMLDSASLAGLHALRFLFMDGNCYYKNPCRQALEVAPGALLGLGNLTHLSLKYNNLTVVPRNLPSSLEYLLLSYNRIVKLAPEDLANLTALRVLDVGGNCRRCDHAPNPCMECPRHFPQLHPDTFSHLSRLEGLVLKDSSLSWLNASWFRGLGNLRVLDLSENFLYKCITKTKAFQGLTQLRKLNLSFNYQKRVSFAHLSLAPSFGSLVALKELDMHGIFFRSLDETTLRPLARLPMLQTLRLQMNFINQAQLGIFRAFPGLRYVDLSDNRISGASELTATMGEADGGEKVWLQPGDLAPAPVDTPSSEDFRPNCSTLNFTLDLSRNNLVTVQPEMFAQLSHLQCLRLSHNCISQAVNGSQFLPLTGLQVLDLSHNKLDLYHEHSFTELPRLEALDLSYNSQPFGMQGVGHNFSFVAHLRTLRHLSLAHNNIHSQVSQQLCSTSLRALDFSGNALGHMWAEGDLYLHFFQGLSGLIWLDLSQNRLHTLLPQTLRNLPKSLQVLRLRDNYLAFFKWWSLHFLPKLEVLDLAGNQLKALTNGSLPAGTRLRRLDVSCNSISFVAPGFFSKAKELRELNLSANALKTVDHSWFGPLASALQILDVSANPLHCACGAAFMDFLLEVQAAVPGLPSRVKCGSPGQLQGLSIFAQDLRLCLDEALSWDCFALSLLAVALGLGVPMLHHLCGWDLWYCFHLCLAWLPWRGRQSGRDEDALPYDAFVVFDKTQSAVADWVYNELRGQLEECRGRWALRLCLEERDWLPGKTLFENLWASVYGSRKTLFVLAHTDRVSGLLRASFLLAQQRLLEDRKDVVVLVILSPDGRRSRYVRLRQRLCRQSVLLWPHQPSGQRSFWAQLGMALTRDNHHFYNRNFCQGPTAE
Experiment: HEK293-Blue-hTLR-9 cells assay (SEAP reporter, ODN2006 stimulation)
Type: cell-based
Parameters: host or cells: HEK293 (HEK-Blue hTLR9)
Settings: HEK293-Blue-hTLR9 cells, ODN2006, 20 hrs; read-out: HEK/hTLR9 IC50
In short: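 HEK293-Blue-hTLR9 cells with NF-κB/AP-1-driven SEAP reporter treated with serially diluted compound (1% DMSO final) plus ODN2006 for 20 h at 37 °C. Supernatant SEAP measured with QUANTI-Blue, 2 h at 37 °C, absorbance 620–655 nm; antagonism seen as reduced reporter signal.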

Row | IC50 [nM] | Structure (SMILES)
1 | 74 | C[C@@H]1CN(c2ccc(C#N)c3ncccc23)C[C@H](CN2CCC(c3cccc(C4CCNCC4)c3)CC2)O1 [Example 2, 5-[(2R,6S)-2-methyl-6-[[4-[3-(4-piperidyl)phenyl]-1-piperidyl]methyl]morpholin-4-yl]quinoline-8-carbonitrile]
2 | 146 | Cc1ccc(N2C[C@H](CN3CCN(c4ccnc(N5CC6(CNCCO6)C5)n4)CC3)O[C@H](C)C2)c2nccnc12 [Example 126, 2-[4-[4-[[(2S,6R)-6-methyl-4-(8-methylquinoxalin-5-yl)morpholin-2-yl]methyl]piperazin-1-yl]pyrimidin-2-yl]-5-oxa-2,8-diazaspiro[3.5]nonane]
3 | 37 | C[C@@H]1CN(c2ccc(C#N)c3nccnc23)C[C@H](CN2CCN(c3ccnc(N4CC[C@H](N)[C@H](F)C4)n3)CC2)O1 [Example 111, 8-[(2S,6R)-2-[[4-[2-[(3R,4S)-4-amino-3-fluoro-1-piperidyl]pyrimidin-4-yl]piperazin-1-yl]methyl]-6-methyl-morpholin-4-yl]quinoxaline-5-carbonitrile]
4 | 64 | [2H]c1ccc2c(N3C[C@H](CN4CCN(c5ncc(N6C[C@@H](N)[C@H](OC)C6)cc5C)CC4)O[C@H](C)C3)ccc(C#N)c2n1 [Example 142, 5-[(2S,6R)-2-[[4-[5-[(3R,4R)-3-amino-4-methoxy-pyrrolidin-1-yl]-3-methyl-2-pyridyl]piperazin-1-yl]methyl]-6-methyl-morpholin-4-yl]-2-deuterio-quinoline-8-carbonitrile]
5 | 51 | C[C@@H]1CN(c2ccc(C#N)c3nccnc23)C[C@H](CN2CCN(c3nccc(N4CC(N)C4)n3)CC2)O1 [Example 118, 8-[(2S,6R)-2-[[4-[4-(3-aminoazetidin-1-yl)pyrimidin-2-yl]piperazin-1-yl]methyl]-6-methyl-morpholin-4-yl]quinoxaline-5-carbonitrile]
6 | 89 | Cc1ccc(N2C[C@H](CN3CCN(c4nccc(N5CCNCC5)n4)CC3)O[C@H](C)C2)c2nccnc12 [Example 116, (2R,6S)-2-methyl-4-(8-methylquinoxalin-5-yl)-6-[[4-(4-piperazin-1-ylpyrimidin-2-yl)piperazin-1-yl]methyl]morpholine]
7 | 68 | C[C@@H]1CN(c2ccc(C#N)c3ncccc23)C[C@H](CN2CCN(c3ccnc(N4C[C@H](N)[C@@H](F)C4)n3)CC2)O1 [Example 110, 5-[(2S,6R)-2-[[4-[2-[(3S,4S)-3-amino-4-fluoro-pyrrolidin-1-yl]pyrimidin-4-yl]piperazin-1-yl]methyl]-6-methyl-morpholin-4-yl]quinoline-8-carbonitrile]
8 | 46 | CO[C@@H]1CN(c2ccc(N3CCN(C[C@H]4CN(c5ccc(C#N)n6ncc(F)c56)C[C@@H](C)O4)CC3)cn2)C[C@H]1N [Example 166, 4-[(2S,6R)-2-[[4-[6-[(3R,4R)-3-amino-4-methoxy-pyrrolidin-1-yl]-3-pyridyl]piperazin-1-yl]methyl]-6-methyl-morpholin-4-yl]-3-fluoro-pyrazolo[1,5-a]pyridine-7-carbonitrile]
9 | 98 | C[C@@H]1CN(c2ccc(C#N)c3nccnc23)C[C@H](CN2CCN(c3ccnc(N4CC[C@@H](N)[C@H](F)C4)n3)CC2)O1 [Example 113, 8-[(2S,6R)-2-[[4-[2-[(3R,4R)-4-amino-3-fluoro-1-piperidyl]pyrimidin-4-yl]piperazin-1-yl]methyl]-6-methyl-morpholin-4-yl]quinoxaline-5-carbonitrile]
10 | 101 | C[C@@H]1CN(c2ccc(C#N)n3nccc23)C[C@H](CN2CC(c3ccc(N4CC(C)(N)C4)cc3)C2)O1 [Example 163, 4-[(2S,6R)-2-[[3-[4-(3-amino-3-methyl-azetidin-1-yl)phenyl]azetidin-1-yl]methyl]-6-methyl-morpholin-4-yl]pyrazolo[1,5-a]pyridine-7-carbonitrile]
11 | 66 | [2H]c1ccc2c(N3C[C@H](CN4CCN(c5ccc(N6CC(C)(N)C6)nc5C)CC4)O[C@H](C)C3)ccc(C#N)c2n1 [Example 137, 5-[(2S,6R)-2-[[4-[6-(3-amino-3-methyl-azetidin-1-yl)-2-methyl-3-pyridyl]piperazin-1-yl]methyl]-6-methyl-morpholin-4-yl]-2-deuterio-quinoline-8-carbonitrile]
12 | 48 | [2H]c1ccc2c(N3C[C@H](CN4CCN(c5nc(C)cc(N6C[C@H](OC)[C@@H](N)C6)n5)CC4)O[C@H](C)C3)ccc(C#N)c2n1 [Example 134, 5-[(2S,6R)-2-[[4-[4-[(3S,4S)-3-amino-4-methoxy-pyrrolidin-1-yl]-6-methyl-pyrimidin-2-yl]piperazin-1-yl]methyl]-6-methyl-morpholin-4-yl]-2-deuterio-quinoline-8-carbonitrile]
13 | 31 | COC1CN(c2nccc(N3CCN(C[C@H]4CN(c5ccc(C#N)c6ncccc56)C[C@@H](C)O4)CC3)n2)CC1N (stereo in doubt) [Example 93, 5-[(2S,6R)-2-[[4-[2-[(3R,4S)-3-amino-4-methoxy-pyrrolidin-1-yl]pyrimidin-4-yl]piperazin-1-yl]methyl]-6-methyl-morpholin-4-yl]quinoline-8-carbonitrile]
14 | 40 | [2H]c1ccc2c(N3C[C@H](CN4CC(c5ccc(N6CC(C)(N)C6)nc5)C4)O[C@H](C)C3)ccc(C#N)c2n1 [Example 138, 5-[(2S,6R)-2-[[3-[6-(3-amino-3-methyl-azetidin-1-yl)-3-pyridyl]azetidin-1-yl]methyl]-6-methyl-morpholin-4-yl]-2-deuterio-quinoline-8-carbonitrile]
15 | 68 | C[C@@H]1CN(c2ccc(C#N)c3nccnc23)C[C@H](CN2CCN(c3ccnc(N4C[C@@H](N)[C@@H](F)C4)n3)CC2)O1 [Example 108, 8-[(2S,6R)-2-[[4-[2-[(3R,4S)-3-amino-4-fluoro-pyrrolidin-1-yl]pyrimidin-4-yl]piperazin-1-yl]methyl]-6-methyl-morpholin-4-yl]quinoxaline-5-carbonitrile]
16 | 162 | [2H]c1ccc2c(N3C[C@H](CN4CC(c5ccc(N6C[C@H](OC)[C@@H](N)C6)cc5)C4)O[C@H](C)C3)ccc(C#N)c2n1 [Example 140, 5-[(2S,6R)-2-[[3-[4-[(3S,4S)-3-amino-4-methoxy-pyrrolidin-1-yl]phenyl]azetidin-1-yl]methyl]-6-methyl-morpholin-4-yl]-2-deuterio-quinoline-8-carbonitrile]
17 | 33 | [2H]c1ccc2c(N3C[C@H](CN4CCN(c5nc(C)cc(N6CC(N)C6)n5)CC4)O[C@H](C)C3)ccc(C#N)c2n1 [Example 136, 5-[(2S,6R)-2-[[4-[4-(3-aminoazetidin-1-yl)-6-methyl-pyrimidin-2-yl]piperazin-1-yl]methyl]-6-methyl-morpholin-4-yl]-2-deuterio-quinoline-8-carbonitrile]
18 | 59 | [2H]c1ccc2c(N3C[C@H](CN4CCN(c5ccc(N6CC7(CN(C)C7)C6)nc5)CC4)O[C@H](C)C3)ccc(C#N)c2n1 [Example 161, 2-deuterio-5-[(2R,6S)-2-methyl-6-[[4-[6-(6-methyl-2,6-diazaspiro[3.3]heptan-2-yl)-3-pyridyl]piperazin-1-yl]methyl]morpholin-4-yl]quinoline-8-carbonitrile]
19 | 80 | C[C@@H]1CN(c2ccc(C#N)c3nccnc23)C[C@H](CN2CCN(c3ccnc(N4C[C@H](N)[C@@H](F)C4)n3)CC2)O1 [Example 107, 8-[(2S,6R)-2-[[4-[2-[(3S,4S)-3-amino-4-fluoro-pyrrolidin-1-yl]pyrimidin-4-yl]piperazin-1-yl]methyl]-6-methyl-morpholin-4-yl]quinoxaline-5-carbonitrile]
20 | 94 | C[C@@H]1CN(c2ccc(C#N)c3nccnc23)C[C@H](CN2CCN(c3nccc(N4C[C@@H](N)[C@H](F)C4)n3)CC2)O1 [Example 119, 8-[(2S,6R)-2-[[4-[4-[(3R,4R)-3-amino-4-fluoro-pyrrolidin-1-yl]pyrimidin-2-yl]piperazin-1-yl]methyl]-6-methyl-morpholin-4-yl]quinoxaline-5-carbonitrile]
21 | 65 | Cc1cc(N2CCN(C[C@H]3CN(c4ccc(C#N)c5nccnc45)C[C@@H](C)O3)CC2)nc(N2CC(N)C2)n1 [Example 112, 8-[(2S,6R)-2-[[4-[2-(3-aminoazetidin-1-yl)-6-methyl-pyrimidin-4-yl]piperazin-1-yl]methyl]-6-methyl-morpholin-4-yl]quinoxaline-5-carbonitrile]
